Test [1] has as its target Alpha-2B adrenergic receptor (Homo sapiens, UniProt P18089). In words: Selectivity interaction (GPCR panel (PDSP screen)) EUB0000309b ADRA2B.
Test [2] deals with Tyrosine-protein kinase Yes (Homo sapiens, UniProt P07947). In words: Selectivity interaction (Z’-LYTE assay) EUB0000638a YES1.
For test [3], the target named is Tyrosine-protein kinase HCK (Homo sapiens, UniProt P08631). In words: Selectivity interaction (Z’-LYTE assay) EUB0000638a HCK.
Test [4] addresses T1, Tyrosine-protein kinase Fyn (Homo sapiens, UniProt P06241). In words: Selectivity interaction (Z’-LYTE assay) EUB0000638a FYN.
Test [5] addresses Tyrosine-protein kinase Tec (Homo sapiens) (UniProt P42680). The note with it: at 1 µM.
Test [6] deals with Receptor tyrosine-protein kinase erbB-2 (Homo sapiens) (UniProt P04626). In words: Selectivity interaction (KinomeScan (DiscoverX)) EUB0000638a ERBB2. The note with it: at 1 µM.
Test [7] addresses Tyrosine-protein kinase Lyn (Homo sapiens, UniProt P07948). In words: Selectivity interaction (Z’-LYTE assay) EUB0000638a LYN.
Test [8] has as its target Proto-oncogene tyrosine-protein kinase Src (Homo sapiens, UniProt P12931). In words: Selectivity interaction (Z’-LYTE assay) EUB0000638a SRC.
Test [9] has as its target Tyrosine-protein kinase Fgr (Homo sapiens, UniProt P09769). In words: Selectivity interaction (Z’-LYTE assay) EUB0000638a FGR.
Test [10] deals with Tyrosine-protein kinase Lck (Homo sapiens, UniProt P06239). In words: Selectivity interaction (Z’-LYTE assay) EUB0000638a LCK.
Test [11] deals with Receptor tyrosine-protein kinase erbB-4 (Homo sapiens) (UniProt Q15303). In words: Selectivity interaction (KinomeScan (DiscoverX)) EUB0000638a ERBB4. The conditions noted are these: at 1 µM.
Test [12] concerns the target Tyrosine-protein kinase Blk (Homo sapiens, UniProt P51451). In words: Selectivity interaction (Z’-LYTE assay) EUB0000638a BLK.
Test [13] has as its target Muscarinic acetylcholine receptor M1 (Homo sapiens, UniProt P11229). In words: Selectivity interaction (GPCR panel (PDSP screen)) EUB0000743a CHRM1.
Test [14] has as its target Megakaryocyte-associated tyrosine-protein kinase (Homo sapiens) (UniProt P42679). In words: Selectivity interaction (KinomeScan (DiscoverX)) EUB0000743a MATK. The note with it: Cellular assay (active RAS (KRAS, HRAS,NRAS) in Calu-1 cells ([…])): IC50 = 4120 nM, https://www.sgc-ffm.uni-frankfurt.d, at 1 µM.
The target of test [15] is SRSF protein kinase 2 (Homo sapiens) (UniProt P78362). In words: Selectivity interaction (KinomeScan (DiscoverX)) EUB0000743a SRPK2. The conditions noted are these: Cellular assay (active RAS (KRAS, HRAS,NRAS) in Calu-1 cells ([…])): IC50 = 4120 nM, https://www.sgc-ffm.uni-frankfurt.d, at 1 µM.
Test [16] has as its target T2, Gamma-aminobutyric acid receptor subunit alpha-1 (Homo sapiens, UniProt P14867).
T2 sequence (P14867 whole entry): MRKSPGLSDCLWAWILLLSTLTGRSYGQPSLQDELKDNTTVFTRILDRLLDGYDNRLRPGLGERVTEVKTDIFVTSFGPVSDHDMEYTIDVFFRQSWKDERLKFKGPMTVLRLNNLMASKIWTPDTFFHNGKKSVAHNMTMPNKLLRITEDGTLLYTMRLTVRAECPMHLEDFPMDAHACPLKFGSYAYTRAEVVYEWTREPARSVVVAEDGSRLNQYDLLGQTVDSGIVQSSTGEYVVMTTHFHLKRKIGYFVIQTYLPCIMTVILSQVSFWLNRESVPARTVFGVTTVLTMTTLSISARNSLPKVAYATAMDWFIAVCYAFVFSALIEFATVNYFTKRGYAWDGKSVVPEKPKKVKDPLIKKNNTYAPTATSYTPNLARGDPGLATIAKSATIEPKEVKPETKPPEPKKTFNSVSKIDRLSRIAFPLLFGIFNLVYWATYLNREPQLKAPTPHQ
In words: Selectivity interaction (GPCR panel (PDSP screen)) EUB0000587a GABRA1.

The target of test [17] is Receptor-type tyrosine-protein kinase FLT3 (Homo sapiens) (UniProt P36888). In words: Selectivity interaction (KinomeScan (DiscoverX)) EUB0000548a FLT3. The conditions noted are these: at 1 µM.
The target of test [18] is T2, Gamma-aminobutyric acid receptor subunit alpha-1. In words: Selectivity interaction (GPCR panel (PDSP screen)) EUB0000548a GABRA1.
Test [19] addresses T3, Myosin-IIIb (Homo sapiens) (UniProt Q8WXR4).
T3 sequence (whole entry): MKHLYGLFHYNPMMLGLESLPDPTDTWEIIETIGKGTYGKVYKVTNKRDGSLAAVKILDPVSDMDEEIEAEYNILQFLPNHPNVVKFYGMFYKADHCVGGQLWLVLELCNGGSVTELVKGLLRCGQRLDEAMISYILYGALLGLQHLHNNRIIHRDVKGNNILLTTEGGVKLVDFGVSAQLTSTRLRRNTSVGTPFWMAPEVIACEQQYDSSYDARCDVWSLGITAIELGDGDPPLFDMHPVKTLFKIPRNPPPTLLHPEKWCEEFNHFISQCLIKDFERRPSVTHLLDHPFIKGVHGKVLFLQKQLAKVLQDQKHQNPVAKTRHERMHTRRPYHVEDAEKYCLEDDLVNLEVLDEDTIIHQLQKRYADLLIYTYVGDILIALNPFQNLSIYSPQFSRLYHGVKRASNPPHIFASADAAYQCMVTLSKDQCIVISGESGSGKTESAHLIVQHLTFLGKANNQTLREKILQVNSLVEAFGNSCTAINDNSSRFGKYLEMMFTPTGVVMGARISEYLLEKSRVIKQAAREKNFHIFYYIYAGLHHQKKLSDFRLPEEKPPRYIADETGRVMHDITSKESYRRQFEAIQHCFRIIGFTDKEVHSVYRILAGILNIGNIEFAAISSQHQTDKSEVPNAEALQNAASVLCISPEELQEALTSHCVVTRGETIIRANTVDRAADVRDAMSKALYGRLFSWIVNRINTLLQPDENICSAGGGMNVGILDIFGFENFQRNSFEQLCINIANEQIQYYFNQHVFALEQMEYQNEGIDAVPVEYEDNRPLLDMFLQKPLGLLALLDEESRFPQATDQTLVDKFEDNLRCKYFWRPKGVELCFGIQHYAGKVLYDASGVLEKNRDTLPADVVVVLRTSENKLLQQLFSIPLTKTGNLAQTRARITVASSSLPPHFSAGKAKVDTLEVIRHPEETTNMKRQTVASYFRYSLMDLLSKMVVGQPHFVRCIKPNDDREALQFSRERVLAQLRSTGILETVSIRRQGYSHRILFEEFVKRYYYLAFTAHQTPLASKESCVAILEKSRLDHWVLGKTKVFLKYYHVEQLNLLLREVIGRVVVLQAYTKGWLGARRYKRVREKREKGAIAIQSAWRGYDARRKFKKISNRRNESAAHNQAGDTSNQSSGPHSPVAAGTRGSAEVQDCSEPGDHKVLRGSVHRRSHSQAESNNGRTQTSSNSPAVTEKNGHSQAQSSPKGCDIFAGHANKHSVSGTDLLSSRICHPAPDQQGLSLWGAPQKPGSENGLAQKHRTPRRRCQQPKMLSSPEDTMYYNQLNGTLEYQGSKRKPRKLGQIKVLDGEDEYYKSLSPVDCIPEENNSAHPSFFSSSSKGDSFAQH
In words: Selectivity interaction (KinomeScan (DiscoverX)) EUB0000548a MYO3B. The note with it: at 1 µM.

In test [20] the target is 5-hydroxytryptamine receptor 2B (Homo sapiens, UniProt P41595). In words: Selectivity interaction (GPCR panel (PDSP screen)) EUB0000748a HTR2B.
The target of test [21] is Sigma non-opioid intracellular receptor 1 (Homo sapiens, UniProt Q99720). In words: Selectivity interaction (GPCR panel (PDSP screen)) EUB0000748a SIGMAR1.
In test [22] the target is Proteinase-activated receptor 4 (Homo sapiens, UniProt Q96RI0). In words: Selectivity interaction (Functional cellular assay (using HEK cells expressing F2RL3)) EUB0000291b F2RL3.
Test [23] has as its target Cyclin-dependent kinase 11A (Homo sapiens) (UniProt Q9UQ88). In words: Selectivity interaction (KinomeScan (DiscoverX)) EUB0000291b CDK11A. The conditions noted are these: at 1 µM.
The target of test [24] is Non-receptor tyrosine-protein kinase TYK2 (Homo sapiens, UniProt P29597). In words: Selectivity interaction (KinomeScan (DiscoverX)) EUB0000291b TYK2. The note with it: at 1 µM.
Test [25] addresses Mitogen-activated protein kinase kinase kinase 12 (Homo sapiens) (UniProt Q12852). In words: Selectivity interaction (KinomeScan (DiscoverX)) EUB0000291b MAP3K12. The note with it: at 1 µM.
For test [26], the target named is Cyclin-dependent kinase 4 (Homo sapiens) (UniProt P11802). In words: Selectivity interaction (KinomeScan (DiscoverX)) EUB0000291b CDK4. The note with it: at 1 µM.
Test [27] has as its target T4, Cannabinoid receptor 1 (Homo sapiens, UniProt P21554). In words: Selectivity interaction (CNR1 functional assay (GTPyS binding)) EUB0000291b CNR1.
For test [28], the target named is Serine/threonine-protein kinase DCLK2 (Homo sapiens) (UniProt Q8N568). In words: Selectivity interaction (KinomeScan (DiscoverX)) EUB0000291b DCLK2. The note with it: at 1 µM.
Test [29] addresses Cyclin-dependent kinase 18 (Homo sapiens) (UniProt Q07002). In words: Selectivity interaction (KinomeScan (DiscoverX)) EUB0000291b CDK18. The conditions noted are these: at 1 µM.
Test [30] concerns the target T4, Cannabinoid receptor 1. In words: Selectivity interaction (Eurofins-Panlabs radioligand binding assay) EUB0000291b CNR1. The note with it: at 10 µM.
Test [31] addresses Histone-lysine N-methyltransferase SMYD3 (Homo sapiens) (UniProt Q9H7B4). In words: Selectivity interaction (Methyltransferase panel) EUB0000221b SMYD3. The note with it: at 10 µM.
Test [32] has as its target T1, Tyrosine-protein kinase Fyn. In words: Selectivity interaction (Kinase panel (HTRF assay)) EUB0000221b FYN. A general note: TR-FRET usually uses a lanthanide donor and a delayed reading to cut background.

By Ki is commonly meant a dissociation constant, usually derived from enzyme kinetics or from competition with a known ligand. High values mean a looser hold on the target, low ones a stronger hold on the target. A word on the IC50: it is the concentration at which inhibition is half-maximal. The low end stands for greater potency, the high end for weaker potency.

Each structure is given as a SMILES string. Where only a bound is given, the exact number is not on record here.

T1 sequence (P06241 whole entry): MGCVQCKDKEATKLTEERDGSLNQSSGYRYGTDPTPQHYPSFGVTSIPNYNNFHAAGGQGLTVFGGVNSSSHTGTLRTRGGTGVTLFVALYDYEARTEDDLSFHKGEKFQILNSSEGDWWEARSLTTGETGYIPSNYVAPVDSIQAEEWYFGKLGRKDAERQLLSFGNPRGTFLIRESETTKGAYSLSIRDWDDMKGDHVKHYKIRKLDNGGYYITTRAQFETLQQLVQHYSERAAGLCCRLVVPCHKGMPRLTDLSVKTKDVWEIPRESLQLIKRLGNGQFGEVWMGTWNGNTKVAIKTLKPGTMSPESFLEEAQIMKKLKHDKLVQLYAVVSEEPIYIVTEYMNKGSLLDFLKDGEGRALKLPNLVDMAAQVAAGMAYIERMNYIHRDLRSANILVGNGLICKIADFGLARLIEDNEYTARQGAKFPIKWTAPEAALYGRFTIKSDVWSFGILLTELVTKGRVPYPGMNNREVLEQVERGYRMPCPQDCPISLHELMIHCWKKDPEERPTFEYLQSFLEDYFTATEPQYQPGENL
T4 sequence (P21554 whole entry): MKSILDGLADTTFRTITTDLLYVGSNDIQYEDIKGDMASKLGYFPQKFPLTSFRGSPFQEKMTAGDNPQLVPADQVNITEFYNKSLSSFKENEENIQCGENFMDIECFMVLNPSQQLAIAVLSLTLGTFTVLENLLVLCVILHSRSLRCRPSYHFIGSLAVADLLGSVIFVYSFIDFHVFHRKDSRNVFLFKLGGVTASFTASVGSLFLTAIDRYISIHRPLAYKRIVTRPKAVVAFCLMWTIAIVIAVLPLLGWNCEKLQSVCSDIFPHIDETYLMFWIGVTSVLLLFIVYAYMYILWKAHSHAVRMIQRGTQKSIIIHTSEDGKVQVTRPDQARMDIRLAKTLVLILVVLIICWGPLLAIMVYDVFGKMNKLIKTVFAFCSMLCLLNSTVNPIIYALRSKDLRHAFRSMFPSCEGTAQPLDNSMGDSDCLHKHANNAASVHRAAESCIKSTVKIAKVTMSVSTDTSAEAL
Mitogen-activated protein kinase kinase kinase 12 (Homo sapiens), sequence (Q12852 whole entry): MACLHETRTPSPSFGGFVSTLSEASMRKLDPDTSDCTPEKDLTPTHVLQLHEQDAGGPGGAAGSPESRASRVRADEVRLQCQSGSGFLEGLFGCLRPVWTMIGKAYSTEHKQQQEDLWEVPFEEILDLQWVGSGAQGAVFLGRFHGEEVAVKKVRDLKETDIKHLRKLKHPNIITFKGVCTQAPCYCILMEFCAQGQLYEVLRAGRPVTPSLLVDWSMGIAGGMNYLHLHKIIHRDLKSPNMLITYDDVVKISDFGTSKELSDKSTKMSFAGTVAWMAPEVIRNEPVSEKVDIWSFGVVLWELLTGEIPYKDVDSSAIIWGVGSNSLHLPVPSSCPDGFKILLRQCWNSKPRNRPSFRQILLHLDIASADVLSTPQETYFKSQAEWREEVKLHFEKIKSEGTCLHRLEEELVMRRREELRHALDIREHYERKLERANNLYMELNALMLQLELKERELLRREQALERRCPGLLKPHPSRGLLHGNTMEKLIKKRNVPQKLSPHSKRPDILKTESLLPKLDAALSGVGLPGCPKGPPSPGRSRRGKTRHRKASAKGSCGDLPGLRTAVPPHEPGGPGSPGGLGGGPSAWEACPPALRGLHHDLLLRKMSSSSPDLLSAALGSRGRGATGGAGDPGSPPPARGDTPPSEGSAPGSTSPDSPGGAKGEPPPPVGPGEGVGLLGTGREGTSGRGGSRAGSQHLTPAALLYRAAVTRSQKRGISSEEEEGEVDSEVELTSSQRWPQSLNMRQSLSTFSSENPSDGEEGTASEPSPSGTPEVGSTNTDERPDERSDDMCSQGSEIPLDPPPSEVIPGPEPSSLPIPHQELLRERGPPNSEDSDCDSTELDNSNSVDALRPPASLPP
Proteinase-activated receptor 4, sequence (Q96RI0 whole entry): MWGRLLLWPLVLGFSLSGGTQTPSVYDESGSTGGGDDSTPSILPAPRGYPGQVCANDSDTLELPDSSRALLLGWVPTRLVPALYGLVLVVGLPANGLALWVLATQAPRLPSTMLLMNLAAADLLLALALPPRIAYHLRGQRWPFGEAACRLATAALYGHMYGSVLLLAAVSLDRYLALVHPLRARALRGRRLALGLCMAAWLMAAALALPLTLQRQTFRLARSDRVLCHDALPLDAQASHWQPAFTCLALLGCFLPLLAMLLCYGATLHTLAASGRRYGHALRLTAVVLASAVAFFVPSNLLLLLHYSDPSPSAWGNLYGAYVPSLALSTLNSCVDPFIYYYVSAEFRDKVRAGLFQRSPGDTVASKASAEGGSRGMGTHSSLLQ
Serine/threonine-protein kinase DCLK2 (Homo sapiens), sequence (Q8N568 whole entry): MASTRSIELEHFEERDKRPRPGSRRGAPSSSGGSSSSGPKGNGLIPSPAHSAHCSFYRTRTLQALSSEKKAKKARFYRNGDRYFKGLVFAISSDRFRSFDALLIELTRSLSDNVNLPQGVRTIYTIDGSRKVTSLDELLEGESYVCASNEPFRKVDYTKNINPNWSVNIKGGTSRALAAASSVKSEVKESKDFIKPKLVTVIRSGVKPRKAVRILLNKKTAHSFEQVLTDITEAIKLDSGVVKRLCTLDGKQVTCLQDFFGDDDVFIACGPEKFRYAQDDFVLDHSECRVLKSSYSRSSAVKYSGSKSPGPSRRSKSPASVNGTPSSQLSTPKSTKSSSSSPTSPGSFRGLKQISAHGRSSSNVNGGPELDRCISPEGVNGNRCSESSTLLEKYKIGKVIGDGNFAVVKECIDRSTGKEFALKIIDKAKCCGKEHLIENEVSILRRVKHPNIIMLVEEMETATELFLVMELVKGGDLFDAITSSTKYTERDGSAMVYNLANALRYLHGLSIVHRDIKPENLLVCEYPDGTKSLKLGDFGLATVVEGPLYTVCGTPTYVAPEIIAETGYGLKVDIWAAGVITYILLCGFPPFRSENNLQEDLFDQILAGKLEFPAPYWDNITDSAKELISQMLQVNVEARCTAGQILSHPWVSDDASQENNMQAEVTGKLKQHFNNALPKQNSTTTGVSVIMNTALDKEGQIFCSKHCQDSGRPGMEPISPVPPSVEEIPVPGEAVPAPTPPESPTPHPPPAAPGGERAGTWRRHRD
SRSF protein kinase 2 (Homo sapiens), sequence (P78362 whole entry, looked up): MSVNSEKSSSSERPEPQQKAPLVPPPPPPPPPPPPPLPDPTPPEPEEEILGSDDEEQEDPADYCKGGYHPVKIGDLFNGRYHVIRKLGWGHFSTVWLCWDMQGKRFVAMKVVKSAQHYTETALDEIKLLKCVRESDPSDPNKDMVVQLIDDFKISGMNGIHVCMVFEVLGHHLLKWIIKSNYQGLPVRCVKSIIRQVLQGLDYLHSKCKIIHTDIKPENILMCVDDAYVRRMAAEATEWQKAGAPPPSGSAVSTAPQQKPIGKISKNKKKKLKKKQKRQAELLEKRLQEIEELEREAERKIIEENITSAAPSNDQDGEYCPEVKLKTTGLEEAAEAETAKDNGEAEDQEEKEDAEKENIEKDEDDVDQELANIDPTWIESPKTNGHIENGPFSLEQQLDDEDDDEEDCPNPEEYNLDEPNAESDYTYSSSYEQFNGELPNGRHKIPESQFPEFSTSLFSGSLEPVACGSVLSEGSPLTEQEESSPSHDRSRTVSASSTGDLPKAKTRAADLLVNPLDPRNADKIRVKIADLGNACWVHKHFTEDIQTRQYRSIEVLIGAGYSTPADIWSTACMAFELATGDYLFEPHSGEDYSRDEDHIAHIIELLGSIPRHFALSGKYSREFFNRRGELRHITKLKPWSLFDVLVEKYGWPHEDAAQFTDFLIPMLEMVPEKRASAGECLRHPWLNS
Histone-lysine N-methyltransferase SMYD3 (Homo sapiens), sequence (Q9H7B4 whole entry): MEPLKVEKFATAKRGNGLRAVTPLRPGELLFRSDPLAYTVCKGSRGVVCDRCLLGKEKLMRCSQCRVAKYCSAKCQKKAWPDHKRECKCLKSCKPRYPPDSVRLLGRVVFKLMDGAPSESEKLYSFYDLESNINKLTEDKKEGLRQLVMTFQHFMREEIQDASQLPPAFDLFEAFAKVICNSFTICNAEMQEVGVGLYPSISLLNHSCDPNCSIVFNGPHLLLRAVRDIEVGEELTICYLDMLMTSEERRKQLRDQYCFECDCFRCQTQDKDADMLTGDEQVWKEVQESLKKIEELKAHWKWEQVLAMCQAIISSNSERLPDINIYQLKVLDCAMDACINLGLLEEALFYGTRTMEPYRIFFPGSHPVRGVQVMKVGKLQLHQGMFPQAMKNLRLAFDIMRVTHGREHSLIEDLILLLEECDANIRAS
Alpha-2B adrenergic receptor, sequence (P18089 whole entry): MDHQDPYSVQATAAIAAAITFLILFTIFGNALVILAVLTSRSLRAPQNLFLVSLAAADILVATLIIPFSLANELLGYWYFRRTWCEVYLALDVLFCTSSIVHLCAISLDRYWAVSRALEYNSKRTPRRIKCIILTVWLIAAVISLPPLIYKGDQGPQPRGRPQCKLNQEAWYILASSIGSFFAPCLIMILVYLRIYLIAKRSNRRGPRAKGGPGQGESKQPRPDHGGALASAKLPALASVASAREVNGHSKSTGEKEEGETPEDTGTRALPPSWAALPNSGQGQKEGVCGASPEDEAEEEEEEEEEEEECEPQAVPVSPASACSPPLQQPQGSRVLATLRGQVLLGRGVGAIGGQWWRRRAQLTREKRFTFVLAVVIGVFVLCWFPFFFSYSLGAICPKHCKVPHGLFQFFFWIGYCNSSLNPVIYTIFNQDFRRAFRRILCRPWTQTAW
Sigma non-opioid intracellular receptor 1, sequence (Q99720 whole entry): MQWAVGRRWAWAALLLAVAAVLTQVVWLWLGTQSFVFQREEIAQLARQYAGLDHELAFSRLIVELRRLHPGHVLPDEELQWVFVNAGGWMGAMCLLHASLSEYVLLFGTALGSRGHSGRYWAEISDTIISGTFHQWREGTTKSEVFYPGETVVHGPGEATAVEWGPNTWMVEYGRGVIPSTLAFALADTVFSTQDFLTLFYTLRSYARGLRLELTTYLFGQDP

As for `NS(=O)(=O)c1cc(NC(=O)Cc2ccccc2)ccc1Oc1cccc(Cl)c1` [BAY-1797], the Ki in test [1] was 4.58 µM.

Turning to `CC#CC(=O)N1CCC[C@H]1c1nc(-c2ccc(C(=O)Nc3ccccn3)cc2)c2c(N)nccn12` [ACALABRUTINIB], the IC50 in test [2], in test [3], in [4], in test [7], in test [8] and in test [9] was > 10 µM throughout. Moreover, the IC50 in [10] and in test [12] was > 10 µM throughout. For the same compound, the % of control in [5] turned out to be 6.4%; in test [6], 2.1%; in test [11], 4.3%.

Consider `CNCc1ccccc1-c1csc([C@H](C)Nc2nc(C)nc3cc(OC)c(OC)cc23)c1` [BAY-294], for which the inhibition constant (Ki) in [13] stood at 614 nM. Further, the values for the % of control in [14] and in [15] were 51% and 52%, respectively.

On to `CCNC(=O)c1cc2c(N3CCOC[C@@H]3C)ccnc2n1C`, for which the affinity in test [16], expressed as Ki, was 224 nM.

Consider `NS(=O)(=O)c1cc(NC(=O)C2(c3ccccc3Cl)CC2)ccc1Oc1cccc(Cl)c1` [BAY-207], for which the % of control in test [17] was 32%; in test [19] it was 29%. This compound also had a Ki in test [18] of 250 nM.

For `Cn1c(-c2csc(C3CCN(CC4=NC5N=CC=CC5N4)CC3)n2)nc2ccccc21` (configuration not stated) [BAY-070], the Ki in test [20] came out at 1530 nM; in [21], 1270 nM.

For the compound `O=C(N1CCS(=O)(=O)CC1)N1C[C@H](c2ccc(OC(F)(F)F)cc2)C[C@H](c2nc(C3CC3)no2)C1` [BAY-386], the IC50 in [22] is > 10 µM; at Cannabinoid receptor 1 [27], 10.6 µM. The % of control was 0% in test [23]; 53% in test [24]; 0% in [25]; 18% in test [26]; 0% in test [28]; 0% in test [29]. Also, on Cannabinoid receptor 1 [30], the % of inhibition was 88%.

Turning to `C[C@H]1CC(=O)Nc2cc(C(=O)NCCC3CC3)ccc2N1C(=O)N1CC2CC2C1` (some centres not stated), the % of activity remaining in test [31] amounted to 40%. The IC50 in test [32] worked out at 5.71 µM.

The values are drawn from ChEMBL document CHEMBL5212743, “Selectivity Literature for EUbOPEN Chemogenomics Library wave 3” (2023).
